Measured values taken from US20180071354A1, “SELECTIVE BREEDING METHOD OF ANTITUMOR/ANTICANCER CAMELLIA SINENSIS STRAIN, AND TEA PRODUCT OF SUCH STRAIN” (FUJIAN AGRICULTURE AND FORESTRY UNIVERSITY, priority 2015, published 2018).
Values after ≈ are worked out from the molar mass of the structure shown. Where two headings read alike, the source gives them in different places.

Columns and labels:
Format in all cases: cell-based
[1] = system: human colon cancer cell line HCT-116; assay: In vitro antitumor/anticancer testing (CCK-8), HCT-116; conditions: 48 h
Description: (§1) Each of Tea Product 1 and Conventional Tea Product obtained in section A of this example was used to prepare test tea samples according to the method described below. A proper amount of the respective tea product was added into sterile water to prepare a stock solution with a concentration of 100 mg/mL, followed by using a membrane filter with a pore size of 0.22 μm to conduct vacuum filtration and sterilization. The resulting stock solution was diluted with a respective complete medium shown in Table 3 below to form test tea samples with different concentrations. In other words, the thus obtained test tea samples to be used for treating a respective cancer/tumor cell line shown in Table 3 were prepared using the same complete medium as that for the respective cancer/tumor cell line. […] Specifically, each of the aforesaid commercially available agents was subjected to the method described below to prepare comparative test samples. A proper amount of a respective commercially available agent was dissolved in phosphate-buffered saline (PBS) to prepare a stock solution with a concentration of 5 mg/mL, followed by using a membrane filter with a pore size of 0.22 μm to conduct vacuum filtration and sterilization. The resulting stock solution was diluted with a respective complete medium shown in Table 3 below to form comparative test samples with different concentrations. To be specific, the comparative test samples prepared from the respective commercially available agent have the concentrations shown in Table 2 below. The thus obtained comparative test samples to be used for treating a respective cancer/tumor cell line shown in Table 3 were prepared using the same complete medium as that for the respective cancer/tumor cell line. […] The cultivation of each cancer/tumor cell line is described as follows. […] Afterwards, a cell suspension having a cell density of 1.0×10^4 cells/mL was prepared. […] As experimental groups, the tumor/cancer cells of each cell line were treated with the test tea samples prepared from one or more of the tea products and the comparative test samples prepared from one or more of the commercially available agents as obtained in section B of this example (for more detailed information about the tea product(s) and the commercially available product (s) used to treat each cell line, please see Table 4 below). To be specific, 6 to 10 test tea samples prepared from the same tea product and having different concentrations, as well as 6 to 10 comparative test samples prepared from the same commercially available agent and having different concentrations, were utilized to treat the tumor/cancer cells of each cell line. For each experimental group, 6 repetitions of tumor/cancer treatment were performed. For the control group, 100 μL of PBS was added to a well containing the medium and the cancer/tumor cells of the respective cell line. For the blank group, 100 μL of PBS was added to a well containing a complete medium the same as that used for cultivation of the cancer/tumor cells of the respective cell line. After the treatment described above, cultivation was conducted in an incubator (37° C., 100% relative humidity, 5% CO2) for 48 hours. Subsequently, the liquid containing the medium and the sample in the well was removed, and a respective complete medium (shown in Table 3 above) containing 10% CCK-8 (Cell Counting Kit-8)(Dojindo Molecular Technologies, Inc., Cat. No. CK04-13) was added. Cultivation was performed in an incubator (37° C.) for 2 to 4 hours, followed by gently shaking.

[2] = system: human squamous cell carcinoma cell line A431; assay: In vitro antitumor/anticancer testing (CCK-8), A431; conditions: 48 h; for IC50: A431
Description: as §1

[3] = system: human gastric cancer cell line SMMC-7721; assay: In vitro antitumor/anticancer testing (CCK-8), SMMC-7721; conditions: 48 h
Description: as §1

[4] = system: human gastric cancer cell line BGC-823; assay: In vitro antitumor/anticancer testing (CCK-8), BGC-823; conditions: 48 h
Description: as §1

[5] = system: human cervical cancer cell line Hela; assay: In vitro antitumor/anticancer testing (CCK-8), Hela; conditions: 48 h
Description: as §1

O=c1[nH]cc(F)c(=O)[nH]1 [5-fluorouracil]
inhibition at 0.3125 µg/mL ([1]; Homo sapiens, HCT-116, 0.3125 μg/mL, read-out: Percent growth inhibition): 70.1% | inhibition at 0.625 µg/mL ([1]; Homo sapiens, HCT-116, 0.625 μg/mL, read-out: Percent growth inhibition): 32.4% | inhibition at 1.25 µg/mL ([1]; Homo sapiens, HCT-116, 1.25 μg/mL, read-out: Percent growth inhibition): 36.4% | inhibition at 2.5 µg/mL ([1]; Homo sapiens, HCT-116, 2.5 μg/mL, read-out: Percent growth inhibition): 88.5% | inhibition at 5 µg/mL ([1]; Homo sapiens, HCT-116, 5 μg/mL, read-out: Percent growth inhibition): 89.9% | inhibition at 10 µg/mL ([1]; Homo sapiens, HCT-116, 10 μg/mL, read-out: Percent growth inhibition): 91.9% | inhibition at 20 µg/mL ([1]; Homo sapiens, HCT-116, 20 μg/mL, read-out: Percent growth inhibition): 95.8% | inhibition at 40 µg/mL ([1]; Homo sapiens, HCT-116, 40 μg/mL, read-out: Percent growth inhibition): 97.9% | inhibition at 80 µg/mL ([1]; Homo sapiens, HCT-116, 80 μg/mL, read-out: Percent growth inhibition): 99.5% | IC50 ([1]; Homo sapiens, HCT-116, read-out: IC50): 0.0493 µg/mL (≈ 0.379 µM) | inhibition at 0.3125 µg/mL ([2]; Homo sapiens, A-431, 0.3125 μg/mL, read-out: Percent growth inhibition): 82.4% | inhibition at 0.625 µg/mL ([2]; Homo sapiens, A-431, 0.625 μg/mL, read-out: Percent growth inhibition): 83.5% | inhibition at 1.25 µg/mL ([2]; Homo sapiens, A-431, 1.25 μg/mL, read-out: Percent growth inhibition): 83.1% | inhibition at 2.5 µg/mL ([2]; Homo sapiens, A-431, 2.5 μg/mL, read-out: Percent growth inhibition): 83% | inhibition at 5 µg/mL ([2]; Homo sapiens, A-431, 5 μg/mL, read-out: Percent growth inhibition): 84.4% | inhibition at 10 µg/mL ([2]; Homo sapiens, A-431, 10 μg/mL, read-out: Percent growth inhibition): 33.7% | inhibition at 20 µg/mL ([2]; Homo sapiens, A-431, 20 μg/mL, read-out: Percent growth inhibition): 96.3% | inhibition at 40 µg/mL ([2]; Homo sapiens, A-431, 40 μg/mL, read-out: Percent growth inhibition): 98.2% | inhibition at 80 µg/mL ([2]; Homo sapiens, A-431, 80 μg/mL, read-out: Percent growth inhibition): 98.8% | IC50 ([2]; Homo sapiens, A-431, read-out: IC50): 0.272 µg/mL (≈ 2.09 µM) | inhibition at 0.3125 µg/mL ([3]; Homo sapiens, SMMC-7721, 0.3125 μg/mL, read-out: Percent growth inhibition): 28.6% | inhibition at 0.625 µg/mL ([3]; Homo sapiens, SMMC-7721, 0.625 μg/mL, read-out: Percent growth inhibition): 62.4% | inhibition at 1.25 µg/mL ([3]; Homo sapiens, SMMC-7721, 1.25 μg/mL, read-out: Percent growth inhibition): 81% | inhibition at 2.5 µg/mL ([3]; Homo sapiens, SMMC-7721, 2.5 μg/mL, read-out: Percent growth inhibition): 82.7% | inhibition at 5 µg/mL ([3]; Homo sapiens, SMMC-7721, 5 μg/mL, read-out: Percent growth inhibition): 84.3% | inhibition at 10 µg/mL ([3]; Homo sapiens, SMMC-7721, 10 μg/mL, read-out: Percent growth inhibition): 81.6% | inhibition at 20 µg/mL ([3]; Homo sapiens, SMMC-7721, 20 μg/mL, read-out: Percent growth inhibition): 79.1% | inhibition at 40 µg/mL ([3]; Homo sapiens, SMMC-7721, 40 μg/mL, read-out: Percent growth inhibition): 80.2% | inhibition at 80 µg/mL ([3]; Homo sapiens, SMMC-7721, 80 μg/mL, read-out: Percent growth inhibition): 91% | IC50 ([3]; Homo sapiens, SMMC-7721): 0.383 µg/mL (≈ 2.94 µM) | inhibition at 0.3125 µg/mL ([4]; Homo sapiens, BGC-823, 0.3125 μg/mL, read-out: Percent growth inhibition): -5.82% | inhibition at 0.625 µg/mL ([4]; Homo sapiens, BGC-823, 0.625 μg/mL, read-out: Percent growth inhibition): -4.99% | inhibition at 1.25 µg/mL ([4]; Homo sapiens, BGC-823, 1.25 μg/mL, read-out: Percent growth inhibition): -1.41% | inhibition at 2.5 µg/mL ([4]; Homo sapiens, BGC-823, 2.5 μg/mL, read-out: Percent growth inhibition): 0.92% | inhibition at 5 µg/mL ([4]; Homo sapiens, BGC-823, 5 μg/mL, read-out: Percent growth inhibition): 11.6% | inhibition at 10 µg/mL ([4]; Homo sapiens, BGC-823, 10 μg/mL, read-out: Percent growth inhibition): 23.9% | inhibition at 20 µg/mL ([4]; Homo sapiens, BGC-823, 20 μg/mL, read-out: Percent growth inhibition): 40.9% | inhibition at 40 µg/mL ([4]; Homo sapiens, BGC-823, 40 μg/mL, read-out: Percent growth inhibition): 52.7% | inhibition at 80 µg/mL ([4]; Homo sapiens, BGC-823, 80 μg/mL, read-out: Percent growth inhibition): 62.8% | IC50 ([4]; Homo sapiens, BGC-823, read-out: IC50): 2.55 µg/mL (≈ 19.6 µM)

O=C(O[C@@H]1Cc2c(O)cc(O)cc2O[C@@H]1c1cc(O)c(O)c(O)c1)c1cc(O)c(O)c(O)c1 [EGCG monomer, epigallocatechin gallate]
Percent growth inhibition ([1]; 2.5 μg/mL): 10.74% | Percent growth inhibition ([1]; 5 μg/mL): −7.91% | Percent growth inhibition ([1]; 10 μg/mL): −4.12% | Percent growth inhibition ([1]; 20 μg/mL): −1.58% | Percent growth inhibition ([1]; 40 μg/mL): 34.52% | Percent growth inhibition ([1]; 80 μg/mL): 66.98% | IC50 ([1]; HCT-116): IC50 (μg/mL) = 55.72 | Percent growth inhibition ([2]; 0.3125 μg/mL): 7.79% | Percent growth inhibition ([2]; 0.625 μg/mL): 13.31% | Percent growth inhibition ([2]; 1.25 μg/mL): 10.00% | Percent growth inhibition ([2]; 2.5 μg/mL): 12.70% | Percent growth inhibition ([2]; 5 μg/mL): 19.18% | Percent growth inhibition ([2]; 10 μg/mL): 24.03% | Percent growth inhibition ([2]; 20 μg/mL): 34.07% | Percent growth inhibition ([2]; 40 μg/mL): 55.14% | Percent growth inhibition ([2]; 80 μg/mL): 30.13% | IC50 [2]: IC50 (μg/mL) = 29.51 | Percent growth inhibition ([3]; 2.5 μg/mL): 4.93% | Percent growth inhibition ([3]; 5 μg/mL): 3.31% | Percent growth inhibition ([3]; 10 μg/mL): 3.45% | Percent growth inhibition ([3]; 20 μg/mL): 1.33% | Percent growth inhibition ([3]; 40 μg/mL): 6.33% | Percent growth inhibition ([3]; 80 μg/mL): 40.85% | Percent growth inhibition ([3]; 160 μg/mL): 92.58% | Percent growth inhibition ([3]; 320 μg/mL): 98.50% | Percent growth inhibition ([3]; 640 μg/mL): 97.44% | Percent growth inhibition ([4]; 2.5 μg/mL): −0.82% | Percent growth inhibition ([4]; 5 μg/mL): −1.06% | Percent growth inhibition ([4]; 10 μg/mL): −0.64% | Percent growth inhibition ([4]; 20 μg/mL): 6.47% | Percent growth inhibition ([4]; 40 μg/mL): 28.02% | Percent growth inhibition ([4]; 80 μg/mL): 60.53% | Percent growth inhibition ([4]; 160 μg/mL): 97.87% | Percent growth inhibition ([4]; 320 μg/mL): 98.16% | Percent growth inhibition ([4]; 640 μg/mL): 97.03% | IC50 ([4]; BGC-823): IC50 (μg/mL) = 62.94 | Percent growth inhibition ([5]; 0.3125 μg/mL): 4.13% | Percent growth inhibition ([5]; 0.625 μg/mL): −0.68% | Percent growth inhibition ([5]; 1.25 μg/mL): 1.08% | Percent growth inhibition ([5]; 2.5 μg/mL): −8.94% | Percent growth inhibition ([5]; 5 μg/mL): −6.50% | Percent growth inhibition ([5]; 10 μg/mL): −22.63% | Percent growth inhibition ([5]; 20 μg/mL): −20.22% | Percent growth inhibition ([5]; 40 μg/mL): −23.80% | Percent growth inhibition ([5]; 80 μg/mL): 36.66% | IC50 ([5]; Hela): IC50 (μg/mL) = 101.2
